Target: T1, S1P-1 receptor (Homo sapiens, UniProt P21453)
T1 construct: expressed in transfected cells; host or cells: HEK 293 T cells (membrane preparation)
Assay: [33P]sphingosine 1-phosphate binding assay on membranes of transfected HEK 293 T cells
Details: [33P]S1P binding, receptor taken from context of b294
Protocol: In certain embodiments, the compounds of the invention selective for the S1P-1 receptor as compared to one or more of the other S1P receptors. For example, one set of compounds includes compounds which are selective for the S1P-1 receptor relative to the S1P-3 receptor. […] The EC50 of a compound is determined using the ^35S-GTPγS binding assay, as described in WO 03/061567, the entire contents of which are incorporated herein by reference. […] The IC50 of a compound is determined using the [^33P]sphingosine 1-phosphate binding assay, as described in Davis, M. D. et al., Sphingosine 1-Phosphate Analogs as Receptor Antagonists. J. Biol. Chem. (2005) 280:9833-9841, the entire contents of which are incorporated herein by this reference.
The terms “agonist” or “S1P-1 receptor agonist” as used herein include the compounds described herein which bind to and/or agonize the S1P-1 receptor. […] The compounds' IC50 for the S1P1 receptor can be measured using the binding assays described in Example 13 or those described in WO 03/061567.
The ability of several of the compounds described herein to bind to the S1P-1 or S1P-3 receptor was also tested as follows.
For the membrane preparation, plasmid DNA was transfected into HEK 293 T cells using the FuGENE 6 transfection protocol (publicly available from Roche). […] Protein concentration was determined spectroscopically by Bradford protein assay. […]

T1 sequence (P21453 whole entry): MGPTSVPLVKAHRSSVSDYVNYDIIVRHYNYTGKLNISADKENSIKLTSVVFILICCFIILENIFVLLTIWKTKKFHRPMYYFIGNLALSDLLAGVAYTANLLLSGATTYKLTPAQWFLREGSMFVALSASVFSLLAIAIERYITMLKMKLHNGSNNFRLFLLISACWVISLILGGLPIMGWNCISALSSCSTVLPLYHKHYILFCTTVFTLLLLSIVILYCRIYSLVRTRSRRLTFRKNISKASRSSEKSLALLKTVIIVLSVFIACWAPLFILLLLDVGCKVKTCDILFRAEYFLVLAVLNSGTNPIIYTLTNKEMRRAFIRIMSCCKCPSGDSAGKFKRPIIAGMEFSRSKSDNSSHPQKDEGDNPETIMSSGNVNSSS

SMILES: CCCCCOCCOc1ccc(-c2nnc([C@@](C)(N)CO)s2)cc1C(F)(F)F
- IC50: 2.17 nM

Source: patent US20080070866A1, “Chemical compounds” (Praecis Pharmaceuticals Incorporated, priority 2006, published 2008)
